Assay [1] concerns LAMP-1 in 769-P cells. Description: LAMP-1 protein expression (western blot), 769-P. The note with it: 20 μM, 24, 48, 72 h. Type of assay: cell-based, human. The protocol: Figure 7 Effect of the peptides on LAMP-1 protein expression: (a) Western blotting analysis of LAMP-1 after treatment with PLVE and VLPE (20 μM) for 24, 48, and 72 h in 769-P cells. (b) Confocal microscopy evaluation of LAMP-1 expression after 48 and 72 h of treatment with PLVE and VLPE (20 μM) in 769-P cells. (c) Western blotting analysis of LAMP-1 after treatment with PLVE and VLPE (20 μM) for 24, 48, and 72 h in A498 cells. (d) Confocal microscopy evaluation of LAMP-1 expression after 48 and 72 h of treatment with PLVE and VLPE (20 μM) in A498 cells. Data are represented as mean ± SD of at least three replicates. Significance was calculated through one-way ANOVA followed by Dunnet’s test. * = p < 0.05, ** = p < 0.01, *** = p < 0.001. Cells were seeded in RPMI containing 10% FBS and cultured for 24 h. Next, 30 µM of inhibitors were added to the culture medium and incubated for 24, 48, and 72 h. Control cells were treated with 0.01% DMSO. At all time points the samples were lysed in 50 mM Tri-HCl (pH 8.0), 100 mM NaCl, 0.5% NP-40, 1% Triton X-100, 1× protease inhibitor cocktail (ThermoFisher, Waltham, MA, USA). The 50 µg of protein lysates were separated by electrophoresis on a 12% SDS-PAGE gel and transferred to the PFDF membranes. […] After an additional wash (three times with PBS), reactive bands were detected by chemiluminescence (Bio-Rad, Irvine, CA, USA). […]
For orientation: Immunoblotting shows a protein as a band on a membrane.

Assay [2] deals with LAMP-1 in A498 cells. Briefly: LAMP-1 protein expression (western blot, confocal microscopy), A498. It is filed as cell-based, human. Particulars: 20 μM. The protocol:
Figure 7 Effect of the peptides on LAMP-1 protein expression: (a) Western blotting analysis of LAMP-1 after treatment with PLVE and VLPE (20 μM) for 24, 48, and 72 h in 769-P cells. (b) Confocal microscopy evaluation of LAMP-1 expression after 48 and 72 h of treatment with PLVE and VLPE (20 μM) in 769-P cells. (c) Western blotting analysis of LAMP-1 after treatment with PLVE and VLPE (20 μM) for 24, 48, and 72 h in A498 cells. (d) Confocal microscopy evaluation of LAMP-1 expression after 48 and 72 h of treatment with PLVE and VLPE (20 μM) in A498 cells. Data are represented as mean ± SD of at least three replicates. Significance was calculated through one-way ANOVA followed by Dunnet’s test. * = p < 0.05, ** = p < 0.01, *** = p < 0.001. Cells were seeded in RPMI containing 10% FBS and cultured for 24 h. Next, 30 µM of inhibitors were added to the culture medium and incubated for 24, 48, and 72 h. Control cells were treated with 0.01% DMSO. At all time points the samples were lysed in 50 mM Tri-HCl (pH 8.0), 100 mM NaCl, 0.5% NP-40, 1% Triton X-100, 1× protease inhibitor cocktail (ThermoFisher, Waltham, MA, USA). The 50 µg of protein lysates were separated by electrophoresis on a 12% SDS-PAGE gel and transferred to the PFDF membranes. The expression of cysteine Cts, LAMP-1, E-cadherin, and SNAIL1 were identified by a reaction with specific primary antibodies (CtsB-Ab190077, Abcam, UK; CtsL-Ab95154, Abcam, UK; CtsW Ab191083; LAMP-1- Ab24170, Abcam, UK; SNAIL1 Ab216347, Abcam, UK and e-cadherin-612131, BD Sciences Franklin Lakes, NJ, USA) which were resuspended in 5% non-fat milk in PBST (all Cts 1:3000, LAMP-1, SNAIL1 and E-cadherin 1:1000) and incubated O/N. The next day, the membranes were washed three times with PBST and incubated for 1 h with secondary antibodies (P-GAR Iss (Goat pAb to rabbit IgG (HRP), Abcam, UK or Rabbit Ab to mouse, Abcam, UK; both 1:5000) in 5% non-fat milk in PBST. After an additional wash (three times with PBS), reactive bands were detected by chemiluminescence (Bio-Rad, Irvine, CA, USA). As a loading control, the membranes were incubated with a polyclonal anti-tubulin antibody (1:5000; Ab52866, Abcam, UK) identically. The cells were treated for 48 and 72 h, then were fixed in 4% PFA/PBS for 15 min and permeabilized in 0.25% Triton®X-100 for 10 min. After blocking the non-specific sites in 2% BSA/PBS-T, the immunofluorescence was performed overnight with primary antibody anti-LAMP-1 (1:100, Abcam, Eugene, OR, USA) incubation, followed by incubation with the appropriate fluorophore-labeled secondary antibody Donkey anti-Rabbit IgG (H+L) ReadyProbes™, Alexa Fluor 488 (1:500; ThermoFisher, USA). […]

Entries after “also recorded” stand apart in the source; their conditions may differ. *: point of attachment. CH2F = FC*

Turning to Ac-VLPE-CH2F [Ac-VLPE-FMK], the LAMP-1 protein expression result in assay [1] was “significantly increased the expression of this lysosomal biomarker at all the considered time points, reaching significant peaks at 48 h of treatment; also recorded: more efficient than Ac-PLVE-FMK in increasing the expression of LAMP-1”; in assay [2] (72 h), “substantial recovery at 72 h, reaching values slightly higher than CTRL levels”; in assay [2] (first 48 h), “significantly affected during the first 48 h”.
For Ac-PLVE-CH2F [Ac-PLVE-FMK], the LAMP-1 protein expression result is “significantly increased the expression of this lysosomal biomarker at all the considered time points, reaching significant peaks at 48 h of treatment” in assay [1]; “substantial recovery at 72 h, reaching values slightly higher than CTRL levels” in assay [2] (72 h); “significantly affected during the first 48 h” in assay [2] (first 48 h).
